The text below walks through data of patent US20210161994A1, “IMPLANTABLE DEVICE FOR THE DELIVERY OF OCTREOTIDE AND METHODS OF USE THEREOF” (Endo Pharmaceuticals Solutions Inc., priority 2008, published 2021).

Each structure is given as a SMILES string.

Data set [1] can be described thus: Log P (partition coefficient). In kind it is physicochemical. The text has this: (§1) Tables 2A-D show release rates of octreotide from three different classes of polyurethane compounds (Tecophilic®, Tecoflex® and Carbothane®). The release rates have been normalized to surface area of the implant, thereby adjusting for slight differences in the size of the various implantable devices. Octreotide is water-soluble as indicated by the Log P value; for the purposes of the data provided, a Log P value of greater than about 2.0 is considered to be not readily soluble in aqueous solution. The polyurethanes were selected to have varying affinities for water soluble active agents and varying flexibility (as indicated by the variation in flex modulus).
The solubility of an active agent in an aqueous environment can be measured and predicted based on its partition coefficient (defined as the ratio of concentration of compound in aqueous phase to the concentration in an immiscible solvent). The partition coefficient (P) is a measure of how well a substance partitions between a lipid (oil) and water. The measure of solubility based on P is often given as Log P. In general, solubility is determined by Log P and melting point (which is affected by the size and structure of the compounds). Typically, the lower the Log P value, the more soluble the compound is in water. […]

Data set [2] is described as follows: Release rate of octreotide from polyurethane implantable devices. It counts as physicochemical. Particulars: Tecophilic HP-60D-05, 5.5% EWC.
From the text: as §1
Polyurethanes are available or can be prepared, for example, with a range of EWCs or flex moduli (Table 2). Tables 2A-B show normalized release rates for various active ingredients from polyurethane compounds. Tables […] show the non-normalized release rates for the same active ingredients, together with implant composition.

For the molecule `C[C@@H](O)[C@@H]1NC(=O)[C@H](CCCCN)NC(=O)[C@@H](Cc2c[nH]c3ccccc23)NC(=O)[C@H](Cc2ccccc2)NC(=O)[C@@H](NC(=O)[C@H](N)Cc2ccccc2)CSSC[C@@H](C(=O)N[C@H](CO)[C@@H](C)O)NC1=O` [Octreotide Acetate], in data set [1], the logP was found to be 0.43. Moreover, in data set [2], the non-normalized release rate is 0. Besides, the “release rate normalized to surface area of the implant” value in data set [2] (10% HPC, 2% SA, 50 mg API) was 0.

In general, logP refers to a log measure of how a compound divides between an organic and an aqueous phase. A lower logP goes with a more hydrophilic compound.
